The test system of series [1] is Gram-positive and Gram-negative bacteria including Pseudomonas aeruginosa. The experiment in a line: In vitro antibacterial activity, overall. The series is classed as cell-based. The following applies: for in vitro antibacterial activity compared with known compounds (in words): b258: Gram-negative bacteria, versus Compounds A, B, D and E, b33: versus compounds A and B; for antibacterial activity (in words): in vitro, Gram-positive and Gram-negative bacteria. The procedure:
(§1) The minimum inhibitory concentrations (MIC, μg/ml) of the following compounds in vitro were measured by the agar dilution method of [Chemotherapy, Vol. 22, No. 16, page 1126 (1974)].

The subject of a further series is Escherichia coli P-5101. Put plainly: In vitro antibacterial activity (MIC, agar dilution method). The series is classed as cell-based. The following applies: P5101; Escherichia coli P-5101; agar dilution; read-out: minimum inhibitory concentration (MIC). The method, then:
as §1

In series [2] the test system is Staphylococcus epidermidis No. 8. The series is described as above. The series is classed as cell-based. The following applies: Staphylococcus epidermidis No. 8; agar dilution; read-out: minimum inhibitory concentration (MIC). The procedure:
as §1

Series [3] deals with Staphylococcus aureus No. 50774. The description is as above. The series is classed as cell-based. The following applies: Staphylococcus aureus No. 50774; agar dilution; read-out: minimum inhibitory concentration (MIC). The method, then:
as §1
In general terms: In agar dilution, organisms are placed on agar that contains the substance at set levels.

In series [4] the test system is Staphylococcus aureus 209P JC-1. The series is described as above. It is filed as cell-based. The following applies: Staphylococcus aureus 209P JC-1; agar dilution; read-out: minimum inhibitory concentration (MIC). The method, then: as §1
A short description of the next series: in vivo. The following applies: for LD50 at 168 h: mouse, in vivo, po; for acute oral toxicity (in words): hydrochloride. The method, then:
A solution containing each of Compounds 1 and 2 of this invention in various concentrations was orally given to male mice (ddY) at a dose of 0.1 ml per 10 g of body weight. The number of dead mice was counted after 7 days, and the value of median lethal dose (LD50, mg/kg) was calculated in accordance with the Behrens-Kaerber method.

The subject of series [5] is Pseudomonas aeruginosa No. 12. Put plainly: In vivo efficacy against systemic infections in mice (intraperitoneal infection). Also on record: species or system male mice (ddY). The following applies: NO.12, 168 h, po, twice, about 5 minutes and 6 hours after intraperitoneal infection, observed 7 days. The procedure: Each of the solutions was orally administered to mice infected with each of test organisms under the conditions described below, and the medium effective doses (ED50) obtained are shown in Table II. Male mice (ddY) weighing about 20 g (4) Pseudomonas aeruginosa No. 12: Intraperitoneal infection with about 5×10^3 cells per mouse suspended in trypto-soy broth with 4% mucin. Twice, about 5 minutes and 6 hours after infection. |Escherichia coli P-5101 for 7 days |Pseudomonas aeruginosa No. 12 | The numerals in the table show ED50 (mg/kg). ED50 values were | calculated in accordance with the BehrensKaerber method (Arch. Exp. Path. | Pharm., 162, 480 (1931)). | po: oral administration.

The nature of series [6]: Acute toxicity in intravenous injection.

Molecules are shown by their SMILES. Entries after “also recorded” stand apart in the source; their conditions may differ. A value given as a limit tells only on which side of the number the result lay.

By LD50 is commonly meant the dose expected to kill half of the subjects tested. Read a low LD50 as greater toxicity. Broadly, the ED50 is the dose that gives a 50% effect, or the effect in half of the subjects. Read a high ED50 as weaker potency. Turning to `CCn1cc(C(=O)O)c(=O)c2cc(F)c(N3CCC(N)C3)nc21.Cl` (stereo not shown) [Compound 1, 7-(3-Amino-1-pyrrolidinyl)-1-ethyl-6-fluoro-1,4-dihydro-4-oxo-1,8-naphthyridine-3-carboxylic acid hydrochloride], in series [1], the “in vitro antibacterial activity compared with known compounds (in words)” value was “far better in vitro antibacterial activity”. Further, the “antibacterial activity (in words)” value in series [1] was “very high antibacterial activities”. Further, the MIC in the series with Escherichia coli P-5101 came out at 0.1 µg/mL; in series [2], 0.2 µg/mL; in series [3], 0.2 µg/mL; in series [4] it was 0.2 µg/mL. For the same compound, the median lethal dose (LD50) at 168 h in “in vivo” is over 2000 mg/kg. Further, the “acute oral toxicity (in words)” value in the series “in vivo” is recorded as “very weak; also recorded: low oral toxicity”. Also, in series [5], the ED50 is 3.7 mg/kg.

On to `CCn1cc(C(=O)O)c(=O)c2cc(F)c(N3CCC(NC)C3)nc21.Cl` (stereo not shown) [Compound 2, 1-Ethyl-6-fluoro-1,4-dihydro-7-(3-methylamino-1-pyrrolidinyl)-4-oxo-1,8-naphthyridine-3-carboxylic acid hydrochloride], for which, in series [6], the “acute toxicity in intravenous injection compared with Compound 1 (in words)” value is recorded as “lower acute toxicity in intervenous injection than Compound 1”. The “in vitro antibacterial activity compared with known compounds (in words)” value in series [1] is recorded as “far better in vitro antibacterial activity”. In addition, the “antibacterial activity (in words)” value in series [1] was “very high antibacterial activities”. In addition, the MIC in the series on Escherichia coli P-5101 is 0.2 µg/mL; in series [2], 0.39 µg/mL; in series [3], 0.78 µg/mL; in series [4] it was 0.78 µg/mL. Moreover, the LD50 at 168 h in “in vivo” is over 2000 mg/kg. In “in vivo”, the “acute oral toxicity (in words)” value was “very weak; also recorded: low oral toxicity”. The same compound showed an ED50 in series [5] of 6.5 mg/kg.
